Experimental findings from patent US12060349B2, “Glucosylceramide synthase inhibitors” (Genzyme Corporation, priority 2012, dated 2024) are described below.

As a reminder, the IC50 is the concentration that inhibits the measured activity by half.

Read-outs that look alike come from different tables or passages of the source.

In test [1] the target is T1, glucosylceramide synthase (Homo sapiens, UniProt Q16739).
T1 construct: Microsomes were isolated from A375 human melanoma cells; endogenous in cells; host or cells: A375 human melanoma cells (microsomal fraction, 100,000 g pellet)
T1 sequence (Q16739 1-394): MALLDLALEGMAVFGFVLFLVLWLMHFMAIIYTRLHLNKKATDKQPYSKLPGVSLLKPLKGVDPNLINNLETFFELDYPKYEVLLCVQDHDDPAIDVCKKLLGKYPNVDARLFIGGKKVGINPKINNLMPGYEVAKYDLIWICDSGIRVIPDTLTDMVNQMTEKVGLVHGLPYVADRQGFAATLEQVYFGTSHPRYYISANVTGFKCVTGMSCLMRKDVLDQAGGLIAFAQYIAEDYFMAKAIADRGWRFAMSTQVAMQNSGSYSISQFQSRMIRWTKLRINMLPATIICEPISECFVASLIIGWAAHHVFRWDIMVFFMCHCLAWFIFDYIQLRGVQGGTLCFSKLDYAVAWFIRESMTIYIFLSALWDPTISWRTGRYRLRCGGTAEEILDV
Put plainly: microsomal assay measuring conversion of ceramide to glucosylceramide by HPLC (GCS IC50). In kind it is biochemical. To be noted: concentration causing 50% inhibition of glucosylceramide synthase activity. The method in brief:
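Microsomal preparation assayed for glucosylceramide synthase by direct HPLC measurement of ceramide conversion to glucosylceramide. GCS IC50 is the compound concentration giving 50% inhibition of enzyme activity.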

The subject of test [2] is GM3 expression on the cell surface, B16 mouse melanoma cells. The test is described as follows: cell based phenotypic assay, cell surface GM3 by antibody mediated immunofluorescence, B16 (GM3 B16 IC50). To be noted: 50% inhibition of GM3 expression on the cell surface. The method in brief: (§1)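 Two melanoma lines, mouse B16 and human C32, were treated and surface GM3 quantified by antibody immunofluorescence for IC50. A parallel viability readout gives the concentration killing 50% of cells, with values over 10 indicating no cell death.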

The subject of test [3] is GM3 expression on the cell surface, C32 human melanoma cells. Put plainly: cell based phenotypic assay, cell surface GM3 by antibody mediated immunofluorescence, C32 (GM3 C32 IC50). To be noted: 50% inhibition of GM3 expression on the cell surface. The method in brief: as §1
A further test deals with B16 mouse melanoma cells. Put plainly: cell viability in the B16 cell-based assay (Viability, B16 IC50). In short, it runs like this: (§2)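 Both lines undergo the phenotypic GM3 assay, and viability is recorded from that same cell-based run.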
The next test deals with C32 human melanoma cells. Put plainly: cell viability in the C32 cell-based assay (Viability, C32 IC50). The note with it: concentration causing 50% cell death, values greater than 10 represent a lack of cell death. The method in brief:
as §2

The mark [4] stands for this setting: Mus musculus, B16 mouse melanoma cells, read-out: GM3 B16 IC50.
[5] abbreviates: Homo sapiens, C32 human melanoma cells, read-out: GM3 C32 IC50.
Setting [6] is: Mus musculus, B16, B16 cells, concentration causing 50% cell death, values greater than 10 represent a lack of cell death, read-out: Viability, B16 IC50.
Setting [7] is: Homo sapiens, C32, C32 cells, read-out: Viability, C32 IC50.
The mark [8] stands for this setting: B16 mouse melanoma cells, read-out: GM3 B16 IC50.
[9] abbreviates: C32 human melanoma cells, read-out: GM3 C32 IC50.
Setting [10] is: B16 cells, concentration causing 50% cell death, values greater than 10 represent a lack of cell death, read-out: Viability, B16 IC50.
The mark [11] stands for this setting: C32 cells, read-out: Viability, C32 IC50.

Consider `CC1(NC(=O)C2(F)CCN(c3ncc(Oc4ccc(F)cc4)cn3)CC2)CN2CCC1CC2` (stereo not shown) [Example 129, 4-Fluoro-1-(5-(4-fluorophenoxy)pyrimidin-2-yl)-N-(3-methylquinuclidin-3-yl)piperidine-4-carboxamide], for which the 50% inhibitory concentration (IC50) was found to be 4.27 nM in test [1]; 97.8 nM in test [2] (setting [4]); 0.38 nM in test [3] (setting [5]); 8260 nM in the test on B16 mouse melanoma cells (setting [6]); 316 nM in the test on C32 human melanoma cells (setting [7]).

For the compound `CNC(=O)c1ccc(Oc2ccc(C(C)(C)NC(=O)NC3(C)CCN4CCC3CC4)cc2)cc1` (stereo not shown) [Example 294, N-Methyl-4-(4-(2-(3-(4-methyl-1-aza-bicyclo[3.2.2]nonan-4-yl)ureido)propan-2-yl)phenoxy)benzamide], the half-inhibitory concentration (IC50) in test [1] was 12.4 nM; in test [2] (setting [4]), 843 nM; in test [3] (setting [5]) it was 7.06 nM; with B16 mouse melanoma cells (setting [6]), no less than 10000 nM; with C32 human melanoma cells (setting [7]) it was 1000 nM.

`CN(C)C(=O)c1ccc(Oc2ccc(C(C)(C)NC(=O)NC3(C)CCN4CCC3CC4)cc2)cc1` (stereo not shown) [Example 290, N,N-Dimethyl-4-(4-(2-(3-(4-methyl-1-aza-bicyclo[3.2.2]nonan-4-yl)ureido)propan-2-yl)phenoxy)benzamide]: the IC50 in test [1] is 19.1 nM; in test [2] (setting [8]), 2580 nM; in test [3] (setting [9]) it was 26.8 nM; with B16 mouse melanoma cells (setting [10]), no less than 10000 nM; in the test on C32 human melanoma cells (setting [11]), 3160 nM.

Turning to `CC1CN(C(=O)NC2(C)CCN3CCC2CC3)CCN1c1nccc(-c2ccccc2)n1` (stereo not shown) [Example 141, 3-Methyl-N-(4-methyl-1-azabicyclo[3.2.2]nonan-4-yl)-4-(4-phenylpyrimidin-2-yl)piperazine-1-carboxamide], the IC50 in test [1] is 5.96 nM; in test [2] (setting [4]) it was 209 nM; in test [3] (setting [5]), 0.888 nM; with B16 mouse melanoma cells (setting [6]), 4670 nM; in the test on C32 human melanoma cells (setting [7]), 316 nM.

Regarding `CN(C)C(=O)c1ccc(-c2ccc(C(C)(C)NC(=O)NC3(C)CN4CCC3CC4)cc2)cc1` (stereo not shown) [Example 258, N,N-Dimethyl-4′-(2-(3-(3-methylquinuclidin-3-yl)ureido)propan-2-yl)biphenyl-4-carboxamide], the concentration for half-maximal inhibition (IC50) is 281 nM in test [1]; 2340 nM in test [2] (setting [4]); 49 nM in test [3] (setting [5]); no less than 10000 nM with B16 mouse melanoma cells (setting [6]); no less than 10000 nM with C32 human melanoma cells (setting [7]).

As to `COCCCOc1cnc(-c2ccc(C(C)(C)NC(=O)OC3CN4CCC3CC4)cc2)cn1` (stereo not shown) [Example 320, Quinuclidin-3-yl (2-(4-(5-(3-methoxypropoxy)pyrazin-2-yl)phenyl)propan-2-yl)carbamate], the IC50 in test [1] was 131 nM; in test [2] (Mus musculus, read-out: GM3 B16 IC50, B16 mouse melanoma cells) it was 201 nM; in test [3] (Homo sapiens, read-out: GM3 C32 IC50, C32 human melanoma cells), 11.2 nM; with B16 mouse melanoma cells (Mus musculus, B16, read-out: Viability, B16 IC50), no less than 10000 nM; in the test on C32 human melanoma cells (Homo sapiens, C32, read-out: Viability, C32 IC50, C32 cells), 1000 nM.

Take `COCC1CN(C(=O)NC2(C)CCN3CCC2CC3)CCN1c1nccc(-c2ccccc2)n1` (stereo not shown) [Example 144, 3-(Methoxymethyl)-N-(4-methyl-1-azabicyclo[3.2.2]nonan-4-yl)-4-(4-phenylpyrimidin-2-yl)piperazine-1-carboxamide]: the IC50 was 67.3 nM in test [1]; 529 nM in test [2] (setting [4]); 6.33 nM in test [3] (setting [5]); no less than 10000 nM with B16 mouse melanoma cells (setting [6]); 1000 nM in the test on C32 human melanoma cells (setting [7]).

As to `CNC(=O)c1ccc(-c2ccc(C(C)(C)NC(=O)OC3CCN4CCC3CC4)cc2)cc1` (stereo not shown) [Example 254, 1-Azabicyclo[3.2.2]nonan-4-yl (2-(4′-(methylcarbamoyl)-[1,1′-biphenyl]-4-yl)propan-2-yl)carbamate], the half-maximal inhibitory concentration (IC50) was 600 nM in test [1]; 650 nM in test [2] (setting [4]); 63.8 nM in test [3] (setting [5]); no less than 10000 nM in the test on B16 mouse melanoma cells (setting [6]); no less than 10000 nM in the test with C32 human melanoma cells (setting [7]).

For `COCCOc1ccc(-c2ccnc(N3CCC(F)(C(=O)NC4(C)CN5CCC4CC5)CC3)n2)cc1` (stereo not shown) [Example 85, 4-Fluoro-1-(4-(4-(2-methoxyethoxy)phenyl)pyrimidin-2-yl)-N-(3-methylquinuclidin-3-yl)piperidine-4-carboxamide], the half-inhibitory concentration (IC50) was 10.5 nM in test [1]; 79.9 nM in test [2] (setting [4]); 0.389 nM in test [3] (setting [5]); no less than 10000 nM in the test on B16 mouse melanoma cells (setting [6]); 316 nM in the test on C32 human melanoma cells (setting [7]).

Take `CC1(NC(=O)N2CCN(c3cccc(-c4ccccc4)c3)CC2)CN2CCC1CC2` (stereo not shown) [Example 15, 4-([1,1′-Biphenyl]-3-yl)-N-(3-methylquinuclidin-3-yl)piperazine-1-carboxamide]: the half-maximal inhibitory concentration (IC50) was 839 nM in test [1]; 368 nM in test [2] (setting [4]); 172 nM in test [3] (setting [5]); no less than 10000 nM in the test with B16 mouse melanoma cells (setting [6]); no less than 10000 nM in the test on C32 human melanoma cells (setting [7]).

Regarding `CN(C)C(=O)c1ccc(Oc2ccc(C(C)(C)NC(=O)OC3CCN4CCC3CC4)cc2)cc1` (stereo not shown) [Example 286, 1-Azabicyclo[3.2.2]nonan-4-yl 2-(4-(4-(dimethylcarbamoyl)phenoxy)phenyl)propan-2-ylcarbamate], the IC50 in test [1] is 437 nM; in test [2] (setting [4]), 793 nM; in test [3] (setting [5]), 31.6 nM; with B16 mouse melanoma cells (setting [6]), no less than 10000 nM; with C32 human melanoma cells (setting [7]), no less than 10000 nM.

In the case of `CC1(NC(=O)N2CCN(c3ccccc3)CC2)CCN2CCC1CC2` (stereo not shown) [Example 10, N-(4-Methyl-1-azabicyclo[3.2.2]nonan-4-yl)-4-phenylpiperazine-1-carboxamide], the IC50 in test [1] is 14700 nM; in test [2] (setting [4]), greater than 10000 nM; in test [3] (setting [5]), 4240 nM; with B16 mouse melanoma cells (setting [6]), no less than 10000 nM; in the test on C32 human melanoma cells (setting [7]) it was no less than 10000 nM.

For the compound “1-(4-(4-Fluorophenoxy)pyrimidin-2-yl)-N-(3-methylquinuclidin-3-yl)piperidine-4-carboxamide [Example 121]”, the IC50 in test [1] stood at 1.33 nM; in test [2] (setting [8]), 26.3 nM; in test [3] (setting [9]) it was 0.093 nM; with B16 mouse melanoma cells (setting [10]) it was 7650 nM; in the test with C32 human melanoma cells (setting [11]), 100 nM.

As to `COCCOCc1ccc(-c2ccc(C(C)(C)NC(=O)NC3(C)CCN4CCC3CC4)cc2)cc1` (stereo not shown) [Example 201, 1-(2-(4′-((2-Methoxyethoxy)methyl)-[1,1′-biphenyl]-4-yl)propan-2-yl)-3-(4-methyl-1-azabicyclo[3.2.2]nonan-4-yl)urea], the IC50 is 13.9 nM in test [1]; 23 nM in test [2] (setting [4]); 0.76 nM in test [3] (setting [5]); no less than 10000 nM in the test with B16 mouse melanoma cells (setting [6]); 316 nM in the test on C32 human melanoma cells (setting [7]).

`COCCCOc1ccc(-c2nc(N3CC(C(=O)NC4(C)CCN5CCC4CC5)C3)ncc2F)cc1` (stereo not shown) [Example 111, 1-(5-Fluoro-4-(4-(3-methoxypropoxy)phenyl)pyrimidin-2-yl)-N-(4-methyl-1-azabicyclo[3.2.2]nonan-4-yl)azetidine-3-carboxamide]: the half-inhibitory concentration (IC50) turned out to be 2 nM in test [1]; 119 nM in test [2] (setting [4]); 0.19 nM in test [3] (setting [5]); 3650 nM with B16 mouse melanoma cells (setting [6]); 1000 nM in the test with C32 human melanoma cells (setting [7]).

For the compound `CCCC1(NC(=O)NC(C)(C)C#Cc2ccc(COCc3cccnc3)cc2)CN2CCC1CC2` (stereo not shown) [Example 333, 1-(2-Methyl-4-(4-((pyridin-3-ylmethoxy)methyl)phenyl)but-3-yn-2-yl)-3-(3-propylquinuclidin-3-yl)urea], the 50% inhibitory concentration (IC50) was 16.1 nM in test [1]; 413 nM in test [2] (setting [4]); 6.18 nM in test [3] (setting [5]); no less than 10000 nM in the test with B16 mouse melanoma cells (setting [6]); 3160 nM in the test on C32 human melanoma cells (setting [7]).

In the case of `COCCOc1ccc(-c2ccc(C(C)(C)NC(=O)OC3CCN4CCC3CC4)nc2)cc1` (single isomer, unassigned) [Example 348, 1-Azabicyclo[3.2.2]nonan-4-yl 2-(5-(4-(2-methoxyethoxy)phenyl)pyridin-2-yl)propan-2-ylcarbamate], the concentration for half-maximal inhibition (IC50) in test [1] is 27.8 nM; in test [2] (setting [8]), 87.2 nM; in test [3] (setting [9]), 3.52 nM; in the test with B16 mouse melanoma cells (setting [6]), no less than 10000 nM; in the test on C32 human melanoma cells (setting [7]) it was 1000 nM.
